The values below come from patent publication US20240158418A1 (C4 Therapeutics, Inc., priority 2021, published 2024).

Read-outs that look alike come from different tables or passages of the source. Where only a bound is given, the exact number is not on record here.

Assay [1] deals with EGFR L858R (Homo sapiens, UniProt P00533, L858R). The experiment in a line: EGFR degradation, Total EGFR (L858R-specific) HTRF, NCI-H3255. As to conditions: NCI-H3255 cells, 6 hours, Total EGFR HTRF, read-out: H3255 EGFR DC50. Also noted: NCI-H3255 (harboring EGFR heterozygous L858R mutation); host or cells: NCI-H3255. In kind it is cell-based. The text has this:
NCI-H1975 (harboring EGFR heterozygous L858R-T790M mutations) and NCI-H3255 (harboring EGFR heterozygous L858R mutation) were purchased from ATCC and NCI, respectively. NCI-H1975+CS (harboring EGFR heterozygous L858R-T790M-C797S mutations) was generated using CRISPR technology to introduce the additional C797S mutation by Horizon Discovery. A431 (harboring EGFR wildtype) was purchased from ATCC. RPMI 1640 no-phenol red medium and fetal bovine serum (FBS) were purchased from Gibco (Grand Island, NY, USA). Cell culture flasks and 384-well microplates were acquired from VWR (Radnor, PA, USA). Phosphorylated (pY1068) EGFR and Total EGFR (using L858R-specific detection antibody and pan-EGFR antibody for EGFR mutant cell lines and EGFR wild-type cell lines, respectively) HTRF assay kits were purchased from Cisbio (Bedford, MA, USA).
Degradation of EGFR protein containing L858R mutation or wild-type was determined based on quantification of FRET signal using a Total EGFR (L858R-specific or pan-EGFR detecting) HTRF assay kit. Phospho-EGFR (pEGFR) inhibition was determined based on quantification of FRET signal using a pY1068 EGFR HTRF assay kit. In separate assay plates, test compounds were added to the 384-well plate from a top concentration of 10 μM with 11 points, half log titration in duplicates. For each assay, 12.5 uL of cells suspended in assay media (RPMI 1640 no-phenol red medium+10% FBS) at cell densities indicated for each cell line in Table 8 below were dispensed using a multi-channel pipette to 384-well low volume white HTRF microplates containing a duplicate concentration range of test compounds and DMSO controls. The plates were kept at 37° C. with 5% CO2 for 6 hours and then incubated with either phospho EGFR or Total EGFR HTRF detection antibodies according to the cell line and EGFR mutant being assayed. Cells treated in the absence of the test compound were the negative control. Positive control was set by wells containing all reagents but no cells. FRET signal was acquired on EnVision™ Multilabel Reader (PerkinElmer, Santa Clara, CA, USA). Compound concentration that achieves 50% degradation and inhibition was reported as DC50 and IC50, respectively.

The target in assay [2] is T1, EGFR L858R-T790M (Homo sapiens, UniProt P00533, L858R/T790M).
T1 construct: NCI-H1975 (harboring EGFR heterozygous L858R-T790M mutations); host or cells: NCI-H1975
In words: EGFR degradation, Total EGFR (L858R-specific) HTRF, NCI-H1975. The assay is classed as cell-based. To be noted: NCI-H1975 cells, 6 hours, Total EGFR HTRF, read-out: H1975 EGFR DC50. Put shortly: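 FRET signal from HTRF kits measured phospho-EGFR at pY1068 or total EGFR after 6 h treatment at 37 °C. Compounds ran as 11-point half-log dilutions from 10 μM in duplicate, in cells in phenol red-free RPMI with 10% FBS. Concentrations giving 50% inhibition or degradation were reported as IC50 or DC50.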
Background: Time-resolved FRET reads energy transfer from a long-lived donor to a nearby acceptor.

Chain of EGFR L858R (P00533 25-1210 L858R): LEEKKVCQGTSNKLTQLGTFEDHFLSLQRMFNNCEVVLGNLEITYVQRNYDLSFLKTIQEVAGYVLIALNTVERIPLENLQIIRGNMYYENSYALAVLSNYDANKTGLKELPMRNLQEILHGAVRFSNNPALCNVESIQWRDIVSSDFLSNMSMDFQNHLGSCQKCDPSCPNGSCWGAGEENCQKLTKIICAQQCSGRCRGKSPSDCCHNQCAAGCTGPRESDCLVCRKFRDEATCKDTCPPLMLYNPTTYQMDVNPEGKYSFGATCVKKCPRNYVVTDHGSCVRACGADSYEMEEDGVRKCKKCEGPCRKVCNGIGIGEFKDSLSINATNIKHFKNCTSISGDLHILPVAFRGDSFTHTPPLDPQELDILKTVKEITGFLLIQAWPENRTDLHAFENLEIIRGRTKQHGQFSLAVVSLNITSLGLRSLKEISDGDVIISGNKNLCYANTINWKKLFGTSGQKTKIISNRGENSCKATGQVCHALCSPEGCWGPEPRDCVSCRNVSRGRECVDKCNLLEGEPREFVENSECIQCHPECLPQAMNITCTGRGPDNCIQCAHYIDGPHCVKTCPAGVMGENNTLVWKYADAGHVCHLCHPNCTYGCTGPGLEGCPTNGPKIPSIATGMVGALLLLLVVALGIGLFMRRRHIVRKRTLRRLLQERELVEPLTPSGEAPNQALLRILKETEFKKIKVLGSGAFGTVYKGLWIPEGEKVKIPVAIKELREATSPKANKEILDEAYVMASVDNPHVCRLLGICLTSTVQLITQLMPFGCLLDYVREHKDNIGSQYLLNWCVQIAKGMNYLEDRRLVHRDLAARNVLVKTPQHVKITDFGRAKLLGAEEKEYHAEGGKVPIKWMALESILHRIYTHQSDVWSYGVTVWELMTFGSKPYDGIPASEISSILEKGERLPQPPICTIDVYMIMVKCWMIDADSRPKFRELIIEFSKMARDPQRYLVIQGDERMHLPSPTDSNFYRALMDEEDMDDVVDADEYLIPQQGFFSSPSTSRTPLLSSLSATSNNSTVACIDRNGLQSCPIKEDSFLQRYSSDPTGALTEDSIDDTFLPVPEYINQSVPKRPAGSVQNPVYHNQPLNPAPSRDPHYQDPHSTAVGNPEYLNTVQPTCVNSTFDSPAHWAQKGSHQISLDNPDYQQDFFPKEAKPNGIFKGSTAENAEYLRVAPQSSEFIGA
T1 sequence (P00533 25-1210 T790M/L858R): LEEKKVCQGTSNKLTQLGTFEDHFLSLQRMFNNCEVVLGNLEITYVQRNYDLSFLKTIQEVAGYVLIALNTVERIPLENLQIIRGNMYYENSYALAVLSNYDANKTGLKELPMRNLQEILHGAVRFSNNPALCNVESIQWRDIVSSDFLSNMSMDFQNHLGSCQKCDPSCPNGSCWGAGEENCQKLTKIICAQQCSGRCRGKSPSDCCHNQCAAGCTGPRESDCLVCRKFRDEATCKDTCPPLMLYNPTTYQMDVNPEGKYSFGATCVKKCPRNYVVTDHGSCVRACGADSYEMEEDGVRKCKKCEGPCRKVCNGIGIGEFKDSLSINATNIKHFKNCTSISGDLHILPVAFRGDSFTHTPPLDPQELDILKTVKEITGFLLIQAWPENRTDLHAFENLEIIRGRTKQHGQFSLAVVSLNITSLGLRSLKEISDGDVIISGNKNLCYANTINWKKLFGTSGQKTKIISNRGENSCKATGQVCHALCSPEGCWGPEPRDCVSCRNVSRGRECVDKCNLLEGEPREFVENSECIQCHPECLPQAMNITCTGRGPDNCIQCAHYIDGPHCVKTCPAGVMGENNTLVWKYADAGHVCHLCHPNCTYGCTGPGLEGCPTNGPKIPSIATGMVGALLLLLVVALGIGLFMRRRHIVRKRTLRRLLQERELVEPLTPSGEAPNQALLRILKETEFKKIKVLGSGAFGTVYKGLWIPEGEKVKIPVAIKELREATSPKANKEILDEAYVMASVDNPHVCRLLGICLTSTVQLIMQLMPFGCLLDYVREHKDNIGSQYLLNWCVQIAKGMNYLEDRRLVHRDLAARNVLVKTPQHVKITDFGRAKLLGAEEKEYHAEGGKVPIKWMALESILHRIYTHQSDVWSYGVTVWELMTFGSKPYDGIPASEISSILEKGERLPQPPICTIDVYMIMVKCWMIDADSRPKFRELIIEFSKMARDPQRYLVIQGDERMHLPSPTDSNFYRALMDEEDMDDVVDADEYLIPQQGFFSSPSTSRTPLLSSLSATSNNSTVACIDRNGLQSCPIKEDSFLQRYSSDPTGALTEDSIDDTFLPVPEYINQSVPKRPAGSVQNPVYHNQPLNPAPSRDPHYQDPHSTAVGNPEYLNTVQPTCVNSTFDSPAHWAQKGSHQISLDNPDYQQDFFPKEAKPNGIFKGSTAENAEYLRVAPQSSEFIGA

Turning to `O=C1CC[C@@H](Nc2ccc(C3CCN(C(=O)CCCN4CCN(c5ccc(-c6cc(F)c7c(c6)C(=O)N(C(C(=O)Nc6nccs6)c6ncn8c6CCC8)C7)cc5)CC4)CC3)cc2)C(=O)N1` (stereo in doubt) [Compound 176, 2-(6,7-dihydro-5H-pyrrolo[1,2-c]imidazol-1-yl)-2-(6-(4-(4-(4-(4-(4-((2,6-dioxopiperidin-3-yl)amino)phenyl)piperidin-1-yl)-4-oxobutyl)piperazin-1-yl)phenyl)-4-fluoro-1-oxoisoindolin-2-yl)-N-(thiazol-2-yl)acetamide], the 50% degradation concentration (DC50) in assay [1] (Table 9B) and in assay [2] (Table 9B) was below 0.05 µM each time.

As to `O=C1CCC(Nc2ccc(C3CCN(CC(=O)N4CCN(Cc5ccc(-c6cc(F)c7c(c6)C(=O)N(C(C(=O)Nc6nccs6)c6ncn8c6CCC8)C7)cc5)CC4)CC3)cc2)C(=O)N1` (stereo not shown) [Compound 6, 2-(6,7-dihydro-5H-pyrrolo[1,2-c]imidazol-1-yl)-2-[6-[4-[[4-[2-[4-[4-[(2,6-dioxo-3-piperidyl)amino]phenyl]-1-piperidyl]acetyl]piperazin-1-yl]methyl]phenyl]-4-fluoro-1-oxo-isoindolin-2-yl]-N-thiazol-2-yl-acetamide], the half-maximal degradation concentration (DC50) in assay [1] (Table 9A) and in assay [2] (Table 9A) was below 0.05 µM in each case.

Take `O=C1CC[C@H](Nc2ccc(C3CCN(CC(=O)N4CCC(c5ccc(-c6cc(F)c7c(c6)C(=O)N(C(C(=O)Nc6nccs6)c6ncn8c6CCC8)C7)cc5)CC4)CC3)cc2)C(=O)N1` (stereo partly drawn) [Compound 22, 2-(6,7-dihydro-5H-pyrrolo[1,2-c]imidazol-1-yl)-2-(6-(4-(1-(2-(4-(4-(((S)-2,6-dioxopiperidin-3-yl)amino)phenyl)piperidin-1-yl)acetyl)piperidin-4-yl)phenyl)-4-fluoro-1-oxoisoindolin-2-yl)-N-(thiazol-2-yl)acetamide]: the DC50 in assay [1] (Table 9A) and in assay [2] (Table 9A) was below 0.05 µM each time. With `O=C1CC[C@H](Nc2ccc(C3CCN(CC(=O)N4CCN(c5ccc(-c6cc(F)c7c(c6)C(=O)N(C(C(=O)Nc6nccs6)c6ncn8c6CCC8)C7)cn5)CC4)CC3)c(F)c2)C(=O)N1` (stereo partly shown) [Compound 27], the half-maximal degradation concentration (DC50) in assay [1] (Table 9A) and in assay [2] (Table 9A) was below 0.05 µM in each case. Turning to `O=C1CC[C@H](Nc2ccc(C3CCN(CC(=O)N4CCC(n5cc(-c6cc(F)c7c(c6)C(=O)N(C(C(=O)Nc6nccs6)c6ncn8c6CCC8)C7)cn5)CC4)CC3)cc2)C(=O)N1` (stereo partly drawn) [Compound 28, 2-(6,7-dihydro-5H-pyrrolo[1,2-c]imidazol-1-yl)-2-[6-[1-[1-[2-[4-[4-[[(3S)-2,6-dioxo-3-piperidyl]amino]phenyl]-1-piperidyl]acetyl]-4-piperidyl]pyrazol-4-yl]-4-fluoro-1-oxo-isoindolin-2-yl]-N-thiazol-2-yl-acetamide], the DC50 in assay [1] (Table 9A) and in assay [2] (Table 9A) was below 0.05 µM in each case. For `O=C1CC[C@H](Nc2ccc(C3CCN(CC(=O)N4CCC(c5cnn(-c6cc(F)c7c(c6)C(=O)N(C(C(=O)Nc6nccs6)c6ncn8c6CCC8)C7)c5)CC4)CC3)cc2)C(=O)N1` (stereo partly drawn) [Compound 29, 2-(6,7-dihydro-5H-pyrrolo[1,2-c]imidazol-1-yl)-2-[6-[4-[1-[2-[4-[4-[[(3S)-2,6-dioxo-3-piperidyl]amino]phenyl]-1-piperidyl]acetyl]-4-piperidyl]pyrazol-1-yl]-4-fluoro-1-oxo-isoindolin-2-yl]-N-thiazol-2-yl-acetamide], the DC50 in assay [1] (Table 9A) and in assay [2] (Table 9A) was below 0.05 µM each time. On to `O=C1CC[C@H](Nc2ccc(C3CCN(CC(=O)N4CCC(n5cc(-c6cc(F)c7c(c6)C(=O)N(C(C(=O)Nc6nccs6)c6ncn8c6CCC8)C7)nn5)CC4)CC3)cc2)C(=O)N1` (stereo partly drawn) [Compound 30, 2-(6,7-Dihydro-5H-pyrrolo[1,2-c]imidazol-1-yl)-2-(6-(1-(1-(2-(4-(4-(((S)-2,6-dioxopiperidin-3-yl)amino)phenyl)piperidin-1-yl)acetyl)piperidin-4-yl)-1H-1,2,3-triazol-4-yl)-4-fluoro-1-oxoisoindolin-2-yl)-N-(thiazol-2-yl)acetamide], for which the DC50 in assay [1] (Table 9A) and in assay [2] (Table 9A) was below 0.05 µM throughout. For `O=C1CCC(Nc2ccc(C3CCN(C(=O)C(=O)N4CCC(Oc5ccc(-c6cc(F)c7c(c6)C(=O)N(C(C(=O)Nc6nccs6)c6ncn8c6CCC8)C7)cc5)CC4)CC3)cc2)C(=O)N1` (stereo not shown) [Compound 40, 2-(6,7-dihydro-5H-pyrrolo[1,2-c]imidazol-1-yl)-2-[6-[4-[[1-[2-[4-[4-[(2,6-dioxo-3-piperidyl)amino]phenyl]-1-piperidyl]-2-oxo-acetyl]-4-piperidyl]oxy]phenyl]-4-fluoro-1-oxo-isoindolin-2-yl]-N-thiazol-2-yl-acetamide], the DC50 in assay [1] (Table 9A) and in assay [2] (Table 9A) was below 0.05 µM each time. Consider `Cn1nc(N2CCC(=O)NC2=O)c2ccc(C3CCN(CC(=O)N4CCN(c5ccc(-c6cc(F)c7c(c6)C(=O)N(C(C(=O)Nc6nccs6)c6ncn8c6C[C@@H](F)C8)C7)cc5)CC4)CC3)cc21` (stereo partly drawn) [Compound 45, 2-[6-[4-[4-[2-[4-[3-(2,4-dioxohexahydropyrimidin-1-yl)-1-methyl-indazol-6-yl]-1-piperidyl]acetyl]piperazin-1-yl]phenyl]-4-fluoro-1-oxo-isoindolin-2-yl]-2-[(6R)-6-fluoro-6,7-dihydro-5H-pyrrolo[1,2-c]imidazol-1-yl]-N-thiazol-2-yl-acetamide], for which the DC50 in assay [1] (Table 9A) and in assay [2] (Table 9A) was below 0.05 µM throughout. In the case of `O=C1CCN(c2ccc(N3CCC(O)(CC(=O)N4CCC5(CC4)CN(c4ccc(-c6cc(F)c7c(c6)C(=O)N(C(C(=O)Nc6nccs6)c6ncn8c6CCC8)C7)cc4)C5)CC3)c(Cl)c2)C(=O)N1` (stereo not shown) [Compound 170, 2-[6-[4-[7-[2-[1-[2-chloro-4-(2,4-dioxohexahydropyrimidin-1-yl)phenyl]-4-hydroxy-4-piperidyl]acetyl]-2,7-diazaspiro[3.5]nonan-2-yl]phenyl]-4-fluoro-1-oxo-isoindolin-2-yl]-2-(6,7-dihydro-5H-pyrrolo[1,2-c]imidazol-1-yl)-N-thiazol-2-yl-acetamide], in assay [2] (Table 9B), the DC50 is below 0.05 µM. On to `N#Cc1cc(N2CCC(=O)NC2=O)ccc1N1CCC(O)(CC(=O)N2CC3(C2)CN(c2ccc(-c4cc(F)c5c(c4)C(=O)N(C(C(=O)Nc4nccs4)c4ncn6c4CCC6)C5)cc2)C3)CC1` (stereo not shown) [Compound 171, 2-[6-[4-[2-[2-[1-[2-cyano-4-(2,4-dioxohexahydropyrimidin-1-yl)phenyl]-4-hydroxy-4-piperidyl]acetyl]-2,6-diazaspiro[3.3]heptan-6-yl]phenyl]-4-fluoro-1-oxo-isoindolin-2-yl]-2-(6,7-dihydro-5H-pyrrolo[1,2-c]imidazol-1-yl)-N-thiazol-2-yl-acetamide], for which, in assay [2] (Table 9B), the DC50 was above 0.15 µM. Turning to `O=C1CCN(c2ccc(N3CCC(O)(CC(=O)N4CC5(CCN(c6ccc(-c7cc(F)c8c(c7)C(=O)N(C(C(=O)Nc7nccs7)c7ncn9c7CCC9)C8)cc6)CC5)C4)CC3)c(Cl)c2)C(=O)N1` (stereo not shown) [Compound 172, 2-[6-[4-[2-[2-[1-[2-chloro-4-(2,4-dioxohexahydropyrimidin-1-yl)phenyl]-4-hydroxy-4-piperidyl]acetyl]-2,7-diazaspiro[3.5]nonan-7-yl]phenyl]-4-fluoro-1-oxo-isoindolin-2-yl]-2-(6,7-dihydro-5H-pyrrolo[1,2-c]imidazol-1-yl)-N-thiazol-2-yl-acetamide], in assay [2] (Table 9B), the DC50 was below 0.05 µM.

For the compound `Cn1nc(N2CCC(=O)NC2=O)c2ccc(C3CCN(CC(=O)N4CCC5(CC4)CN(c4ccc(-c6cc(F)c7c(c6)C(=O)N(C(C(=O)Nc6nccs6)c6ncn8c6CCC8)C7)cc4)C5)CC3(F)F)cc21` (stereo not shown) [Compound 174], the DC50 in assay [2] (Table 9B) is below 0.05 µM.

The DC50 is the concentration at which degradation of the target reaches its halfway point.
